Like-named read-outs stand apart in the source and are kept apart here.
What was measured:
Assay type in all cases: cell-based
human 5-HT2A receptor = biological target: T1, human 5-HT2A receptor (Homo sapiens, UniProt P28223); assay: 5HT2A Antagonism Assay (Euroscreen FAST-05051), IP-One HTRF
T1 construct: host or cells: CHO-K1
In short: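 CHO-K1 cells expressing receptor, 20,000/well, co-incubated with test compound and reference agonist at its EC80 for 60 min at 37 °C. IP1 accumulation read by HTRF after ~1 h detection at room temperature. Compounds tested in duplicate at 0.3–10,000 nM.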

human 5-HT7 receptor = biological target: T2, human 5-HT7 receptor (Homo sapiens, UniProt P34969); assay: 5HT7 Antagonism Assay (Euroscreen FAST-0499C), cAMP HTRF; details: CHO-K1 cells expressing human 5-HT7, reference agonist at EC80, cAMP HTRF
T2 construct: host or cells: CHO-K1
In short: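 CHO-K1 cells expressing human 5-HT7, 3000 per well in Krebs-Ringer HEPES with 1 mM IBMX, were exposed for 30 minutes at room temperature to compound plus reference agonist at its EC80. cAMP was read by HTRF after 1 hour; compounds were tested in duplicate from 0.3 to 10,000 nM.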

human TAAR1 receptors = biological target: T3, human TAAR1 receptors (Homo sapiens, UniProt Q96RJ0); assay: TAAR1 Agonism Assay: cAMP HTRF assay for Gs coupled receptor TAAR1 (Euroscreen FAST-0987C); details: CHO-K1 cells expressing human TAAR1, cAMP HTRF
T3 construct: host or cells: CHO-K1
T3 sequence (Q96RJ0 1-339): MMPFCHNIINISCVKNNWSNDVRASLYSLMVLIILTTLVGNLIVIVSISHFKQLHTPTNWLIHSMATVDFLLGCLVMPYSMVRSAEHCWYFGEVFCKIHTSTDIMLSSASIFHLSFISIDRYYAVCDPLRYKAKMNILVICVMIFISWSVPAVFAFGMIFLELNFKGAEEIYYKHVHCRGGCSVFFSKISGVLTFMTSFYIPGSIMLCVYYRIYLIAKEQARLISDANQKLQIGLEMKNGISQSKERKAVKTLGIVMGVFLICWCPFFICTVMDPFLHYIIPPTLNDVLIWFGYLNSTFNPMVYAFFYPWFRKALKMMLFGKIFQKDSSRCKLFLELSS
In short: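 cAMP accumulation detected by HTRF fluorescence ratio, reagents added in lysis buffer and incubated 1 h at about room temperature. Beforehand, cells (about 3,000 per well) sat with test compound at ten concentrations from 0.3 to 10,000 nM in duplicate for roughly 30 min at about room temperature; tyramine dose-response run alongside.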

[1] = read-out: 5-HT2A (IC50), CHO-K1 cells expressing human 5-HT2A, reference agonist at EC80, IP-One
[2] = 5-HT2A (IC50), CHO-K1 cells expressing human 5-HT2A, reference agonist at EC80, IP-One

T1 sequence (P28223 whole entry): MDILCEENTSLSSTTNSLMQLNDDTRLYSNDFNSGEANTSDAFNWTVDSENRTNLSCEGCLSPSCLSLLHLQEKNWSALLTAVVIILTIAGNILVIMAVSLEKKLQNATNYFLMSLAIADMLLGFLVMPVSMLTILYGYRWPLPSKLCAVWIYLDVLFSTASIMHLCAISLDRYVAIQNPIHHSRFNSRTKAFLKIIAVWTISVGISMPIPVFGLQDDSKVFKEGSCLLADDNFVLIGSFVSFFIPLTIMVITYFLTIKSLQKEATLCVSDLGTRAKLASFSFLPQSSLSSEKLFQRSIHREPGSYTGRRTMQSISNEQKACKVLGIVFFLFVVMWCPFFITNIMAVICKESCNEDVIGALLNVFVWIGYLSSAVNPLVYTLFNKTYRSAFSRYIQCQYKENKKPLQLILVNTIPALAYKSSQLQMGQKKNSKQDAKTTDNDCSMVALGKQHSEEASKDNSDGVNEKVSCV
T2 sequence (P34969 whole entry): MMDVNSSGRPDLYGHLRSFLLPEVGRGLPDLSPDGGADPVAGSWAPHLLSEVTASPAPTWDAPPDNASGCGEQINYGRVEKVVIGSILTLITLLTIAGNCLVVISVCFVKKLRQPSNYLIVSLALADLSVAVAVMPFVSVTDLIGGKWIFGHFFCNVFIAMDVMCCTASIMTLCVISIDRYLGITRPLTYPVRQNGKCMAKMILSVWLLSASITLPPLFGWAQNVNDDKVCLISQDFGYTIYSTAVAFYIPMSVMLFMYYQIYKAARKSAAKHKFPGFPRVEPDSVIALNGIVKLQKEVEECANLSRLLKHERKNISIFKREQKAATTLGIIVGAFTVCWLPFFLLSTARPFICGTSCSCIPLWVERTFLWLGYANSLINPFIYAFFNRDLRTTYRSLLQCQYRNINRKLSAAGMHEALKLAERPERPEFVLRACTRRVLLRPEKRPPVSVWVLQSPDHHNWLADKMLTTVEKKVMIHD

CNCC1Oc2ccccc2Oc2cccnc21 (single isomer, unassigned) [Compound 58, (R*)-1-(11H-benzo[2,3][1,4]dioxepino[6,5-b]pyridin-11-yl)-N-methylmethanamine]
IC50 (human 5-HT2A receptor; [1]): 1000 to 10000 nM
IC50 (human 5-HT7 receptor): 1000 to 10000 nM
EC50 (human TAAR1 receptors): < 1000 nM

NCC1Oc2ccccc2Oc2cccnc21 (single isomer, unassigned) [Compound 59, (S*)-(11H-benzo[2,3][1,4]dioxepino[6,5-b]pyridin-11-yl)methanamine]
IC50 (human 5-HT2A receptor; [2]): > 10000 nM
IC50 (human 5-HT7 receptor): ≥ 10000 nM
EC50 (human TAAR1 receptors): < 1000 nM

NCC1Oc2ccccc2Oc2cccnc21 (single isomer, unassigned) [Compound 60, (R*)-(11H-benzo[2,3][1,4]dioxepino[6,5-b]pyridin-11-yl)methanamine]
IC50 (human 5-HT2A receptor; [1]): > 10000 nM
IC50 (human 5-HT7 receptor): ≥ 10000 nM
EC50 (human TAAR1 receptors): < 1000 nM

NCC1Cc2c(F)cccc2Oc2ccccc21 (single isomer, unassigned) [Compound 80, (R*)-(1-fluoro-10,11-dihydrodibenzo[b,f]oxepin-10-yl)methanamine]
IC50 (human 5-HT2A receptor; [2]): < 1000 nM
IC50 (human 5-HT7 receptor): ≥ 10000 nM
EC50 (human TAAR1 receptors): < 1000 nM

NCC1Cc2c(F)cccc2Oc2ccccc21 (single isomer, unassigned) [Compound 81, (S*)-(1-fluoro-10,11-dihydrodibenzo[b,f]oxepin-10-yl)methanamine]
IC50 (human 5-HT2A receptor; [1]): < 1000 nM
IC50 (human 5-HT7 receptor): ≥ 10000 nM
EC50 (human TAAR1 receptors): < 1000 nM

CNCC1Cc2c(F)cccc2Oc2ccccc21 (single isomer, unassigned) [Compound 82, (R*)-1-(1-fluoro-10,11-dihydrodibenzo[b,f]oxepin-10-yl)-N-methylmethanamine]
IC50 (human 5-HT2A receptor; [2]): < 1000 nM
IC50 (human 5-HT7 receptor): 1000 to 10000 nM
EC50 (human TAAR1 receptors): < 1000 nM

CNCC1Cc2c(F)cccc2Oc2ccccc21 (single isomer, unassigned) [Compound 83, (S*)-1-(1-fluoro-10,11-dihydrodibenzo[b,f]oxepin-10-yl)-N-methylmethanamine]
IC50 (human 5-HT2A receptor; [1]): < 1000 nM
IC50 (human 5-HT7 receptor): 1000 to 10000 nM
EC50 (human TAAR1 receptors): > 10000 nM

NCC1Cc2cccc(F)c2Oc2ccccc21 (single isomer, unassigned) [Compound 84, (R*)-(4-fluoro-10,11-dihydrodibenzo[b,f]oxepin-10-yl)methanamine]
IC50 (human 5-HT2A receptor; [2]): > 10000 nM
IC50 (human 5-HT7 receptor): ≥ 10000 nM
EC50 (human TAAR1 receptors): < 1000 nM

NCC1Cc2cccc(F)c2Oc2ccccc21 (single isomer, unassigned) [Compound 85, (S*)-(4-fluoro-10,11-dihydrodibenzo[b,f]oxepin-10-yl)methanamine]
IC50 (human 5-HT2A receptor; [2]): 1000 to 10000 nM
IC50 (human 5-HT7 receptor): ≥ 10000 nM
EC50 (human TAAR1 receptors): < 1000 nM

CNCC1Cc2cccc(F)c2Oc2ccccc21 (single isomer, unassigned) [Compound 86, (R*)-(4-fluoro-10,11-dihydrodibenzo[b,f]oxepin-10-yl)-N-methylmethanamine]
IC50 (human 5-HT2A receptor; [2]): < 1000 nM
IC50 (human 5-HT7 receptor): 1000 to 10000 nM
EC50 (human TAAR1 receptors): < 1000 nM

CNCC1Cc2cccc(F)c2Oc2ccccc21 (single isomer, unassigned) [Compound 87, (S*)-(4-fluoro-10,11-dihydrodibenzo[b,f]oxepin-10-yl)-N-methylmethanamine]
IC50 (human 5-HT2A receptor; [1]): < 1000 nM
IC50 (human 5-HT7 receptor): 1000 to 10000 nM
EC50 (human TAAR1 receptors): < 1000 nM

NCC1Cc2ccc(F)cc2Oc2ccccc21 (single isomer, unassigned) [Compound 89, (S*)-(3-fluoro-10,11-dihydrodibenzo[b,f]oxepin-10-yl)methanamine]
IC50 (human 5-HT2A receptor; [2]): < 1000 nM
IC50 (human 5-HT7 receptor): ≥ 10000 nM
EC50 (human TAAR1 receptors): < 1000 nM

CNCC1Cc2ccc(F)cc2Oc2ccccc21 (single isomer, unassigned) [Compound 90, (R*)-(3-fluoro-10,11-dihydrodibenzo[b,f]oxepin-10-yl)-N-methylmethanamine]
IC50 (human 5-HT2A receptor; [2]): < 1000 nM
IC50 (human 5-HT7 receptor): 1000 to 10000 nM
EC50 (human TAAR1 receptors): > 10000 nM

CNCC1Cc2ccc(F)cc2Oc2ccccc21 (single isomer, unassigned) [Compound 91, (S*)-(3-fluoro-10,11-dihydrodibenzo[b,f]oxepin-10-yl)-N-methylmethanamine]
IC50 (human 5-HT2A receptor; [1]): < 1000 nM
IC50 (human 5-HT7 receptor): < 1000 nM
EC50 (human TAAR1 receptors): < 1000 nM

NCC1Cc2ccccc2Oc2ccc(F)cc21 (single isomer, unassigned) [Compound 92, (R*)-(8-fluoro-10,11-dihydrodibenzo[b,f]oxepin-10-yl)methanamine]
IC50 (human 5-HT2A receptor; [2]): < 1000 nM
IC50 (human 5-HT7 receptor): ≥ 10000 nM
EC50 (human TAAR1 receptors): < 1000 nM

CNCC1Cc2ccccc2Oc2ccc(F)cc21 (single isomer, unassigned) [Compound 94, (R*)-(8-fluoro-10,11-dihydrodibenzo[b,f]oxepin-10-yl)-N-methylmethanamine]
IC50 (human 5-HT2A receptor; [2]): < 1000 nM
IC50 (human 5-HT7 receptor): 1000 to 10000 nM
EC50 (human TAAR1 receptors): < 1000 nM

CNCC1Cc2ccccc2Oc2ccc(F)cc21 (single isomer, unassigned) [Compound 95, (S*)-(8-fluoro-10,11-dihydrodibenzo[b,f]oxepin-10-yl)-N-methylmethanamine]
IC50 (human 5-HT2A receptor; [1]): < 1000 nM
IC50 (human 5-HT7 receptor): 1000 to 10000 nM
EC50 (human TAAR1 receptors): 1000 to 10000 nM

NCC1Cc2cc(F)ccc2Oc2ccccc21 (single isomer, unassigned) [Compound 96, (R*)-(2-fluoro-10,11-dihydrodibenzo[b,f]oxepin-10-yl)methanamine]
IC50 (human 5-HT2A receptor; [2]): < 1000 nM
IC50 (human 5-HT7 receptor): ≥ 10000 nM
EC50 (human TAAR1 receptors): < 1000 nM

CNCC1Cc2cc(F)ccc2Oc2ccccc21 (single isomer, unassigned) [Compound 98, (R*)-(2-fluoro-10,11-dihydrodibenzo[b,f]oxepin-10-yl)-N-methylmethanamine]
IC50 (human 5-HT2A receptor; [2]): < 1000 nM
IC50 (human 5-HT7 receptor): 1000 to 10000 nM
EC50 (human TAAR1 receptors): < 1000 nM

NCC1Cc2ccccc2Oc2c(F)cccc21 (single isomer, unassigned) [Compound 100, (R*)-(6-fluoro-10,11-dihydrodibenzo[b,f]oxepin-10-yl)methanamine]
IC50 (human 5-HT2A receptor; [2]): < 1000 nM
IC50 (human 5-HT7 receptor): ≥ 10000 nM
EC50 (human TAAR1 receptors): < 1000 nM

NCC1Cc2ccccc2Oc2c(F)cccc21 (single isomer, unassigned) [Compound 101, (S*)-(6-fluoro-10,11-dihydrodibenzo[b,f]oxepin-10-yl)methanamine]
IC50 (human 5-HT2A receptor; [2]): > 10000 nM
IC50 (human 5-HT7 receptor): ≥ 10000 nM
EC50 (human TAAR1 receptors): < 1000 nM

CNCC1Cc2ccccc2Oc2c(F)cccc21 (single isomer, unassigned) [Compound 102, (R*)-(6-fluoro-10,11-dihydrodibenzo[b,f]oxepin-10-yl)-N-methylmethanamine]
IC50 (human 5-HT2A receptor; [2]): < 1000 nM
IC50 (human 5-HT7 receptor): ≥ 10000 nM
EC50 (human TAAR1 receptors): < 1000 nM

NCC1Cc2ccccc2Oc2cccc(F)c21 (single isomer, unassigned) [Compound 104, (R*)-(9-fluoro-10,11-dihydrodibenzo[b,f]oxepin-10-yl)methanamine]
IC50 (human 5-HT2A receptor; [2]): 1000 to 10000 nM
IC50 (human 5-HT7 receptor): ≥ 10000 nM
EC50 (human TAAR1 receptors): < 1000 nM

NCC1Cc2ccccc2Oc2cccc(F)c21 (single isomer, unassigned) [Compound 105, (S*)-(9-fluoro-10,11-dihydrodibenzo[b,f]oxepin-10-yl)methanamine]
IC50 (human 5-HT2A receptor; [2]): > 10000 nM
IC50 (human 5-HT7 receptor): ≥ 10000 nM
EC50 (human TAAR1 receptors): 1000 to 10000 nM

CNCC1Cc2ccccc2Oc2cccc(F)c21 (single isomer, unassigned) [Compound 106, (R*)-(9-fluoro-10,11-dihydrodibenzo[b,f]oxepin-10-yl)-N-methylmethanamine]
IC50 (human 5-HT2A receptor; [2]): < 1000 nM
IC50 (human 5-HT7 receptor): ≥ 10000 nM
EC50 (human TAAR1 receptors): < 1000 nM

CNCC1Cc2ccccc2Oc2cccc(F)c21 (single isomer, unassigned) [Compound 107, (S*)-(9-fluoro-10,11-dihydrodibenzo[b,f]oxepin-10-yl)-N-methylmethanamine]
IC50 (human 5-HT2A receptor; [2]): 1000 to 10000 nM
IC50 (human 5-HT7 receptor): ≥ 10000 nM
EC50 (human TAAR1 receptors): > 10000 nM

CCNCC1Cc2ccccc2Oc2cccnc21 (single isomer, unassigned) [Compound 109, (R*)-1-(10,11-dihydrobenzo-[6,7]oxepino[3,2-b]pyridin-11-yl)-N-ethylmethanamine]
IC50 (human 5-HT2A receptor; [2]): 1000 to 10000 nM
IC50 (human 5-HT7 receptor): ≥ 10000 nM
EC50 (human TAAR1 receptors): < 1000 nM

CN(C)CC1Cc2ccccc2Oc2cccnc21 (single isomer, unassigned) [Compound 111, (R*)-1-(10,11-dihydro-benzo[6,7]oxepino[3,2-b]pyridin-11-yl)-N,N-dimethylmethanamine]
IC50 (human 5-HT2A receptor; [2]): 1000 to 10000 nM
IC50 (human 5-HT7 receptor): ≥ 10000 nM
EC50 (human TAAR1 receptors): < 1000 nM

NCC1Cc2cc(Cl)ccc2Oc2cccnc21 (single isomer, unassigned) [Compound 120, (S*)-(8-chloro-10,11-dihydrobenzo[6,7]oxepino[3,2-b]pyridin-11-yl)methanamine]
IC50 (human 5-HT2A receptor; [2]): 1000 to 10000 nM
IC50 (human 5-HT7 receptor): ≥ 10000 nM
EC50 (human TAAR1 receptors): < 1000 nM

NCC1Cc2cc(Cl)ccc2Oc2cccnc21 (single isomer, unassigned) [Compound 121, (R*)-(8-chloro-10,11-dihydrobenzo[6,7]oxepino[3,2-b]pyridin-11-yl)methanamine]
IC50 (human 5-HT2A receptor; [2]): < 1000 nM
IC50 (human 5-HT7 receptor): < 1000 nM
EC50 (human TAAR1 receptors): < 1000 nM

From US20240245658A1, “TAAR1 AND SEROTONIN MODULATORS, AND PHARMACEUTICAL COMPOSITIONS, AND METHODS OF USE THEREOF” (Sunovion Pharmaceuticals Inc., priority 2021, published 2024)
